Measurements taken from patent US12428443B2, “Abiraterone precursor compound and preparation method and use thereof” (SUZHOU AIHE PHARMACEUTICAL TECHNOLOGY CO., LTD., priority 2021, dated 2025).
pIC50: −log10 of the molar value. Read-outs that look alike come from different tables or passages of the source.

Tests used:
LNCAP clone FGC = experiment: CellTiter-Glo chemiluminescent cell viability assay (CTG method), LNCAP; assay type: cell-based; conditions: LNCAP cells, 72 h; for pIC50: read-out: Absolute IC50
Experimental: (§1) Half-maximal inhibitory concentrations (IC50) of abiraterone acetate and LHY-AB614 for proliferation of LNCAP clone FGC and VCAP were assessed by a CellTiter-Glo® chemiluminescent cell viability assay (namely, a CTG method). Cells in an exponential phase were collected, and live cells were counted. Each cell suspension was adjusted with a corresponding medium to an appropriate concentration. 90 μL of a cell suspension was added to each well of a 96-well plate and cultivated in a 37° C. and 5% CO2 incubator for 24 h. A sample to be tested was dissolved in DMSO to prepare a stock solution with a starting concentration of 50 μM, and the stock solution was 3-fold diluted with a medium to obtain 10× working solutions with 9 concentrations. Cisplatin, as a reference compound, was dissolved in DMSO to prepare a stock solution with a starting concentration of 100 μM, and the stock solution was 3-fold diluted with a medium to obtain 10× working solutions with 9 concentrations. 10 μL of a working solution was added to cells in each well, and then the cells were cultivated in a 37° C. and 5% CO2 incubator for 72 h. The 96-well plate was equilibrated at room temperature for about 30 min, then 50 μL of a CTG solution was added to each well, and the 96-well plate was shaken on a microplate shaker for 2 min to perform cell lysis and placed at room temperature for 20 min to stabilize a fluorescence signal. A fluorescence signal value was determined with an Envision2104 plate reader. On the GraphPad Prism software, a nonlinear regression model was used to plot an S-type dose-response curve and calculate an IC50 value.

VCAP = experiment: CellTiter-Glo chemiluminescent cell viability assay (CTG method), VCAP; assay type: cell-based; conditions: VCAP cells, 72 h; for pIC50: read-out: Absolute IC50
Experimental: as §1

[1] = cited from earlier work
[2] = Solubility test in normal saline; assay type: physicochemical; conditions: saline or isotonic, thermodynamic from solid
Experimental: 200 mg of LHY-AB614-622 was weighed, and 1 mL of normal saline was added.
2 mg of abiraterone acetate was weighed and dissolved in 1 mL of normal saline, a resulting solution was stirred overnight and then subjected to suction filtration, and a resulting filtrate was subjected to HPLC analysis. Abiraterone acetate was dissolved in methanol to prepare a 0.1 mg/mL solution as a control.

[3] = Comparative study of pharmacokinetic properties in Beagle dogs (oral); assay type: in vivo
Experimental: Four healthy Beagle dogs with body weights in a range of 6 kg to 8 kg were selected. The Beagle dogs were fasted for 12 h the day before an experiment, and all were given a low-fat standard meal after administration. The Beagle dogs should not be administered with other drugs two weeks before the experiment and during the experiment. The four Beagle dogs were randomly divided into a group A and a group B (2 dogs in each group). LHY-AB614 was administered orally at a dose of 46.8 mg/kg (32.2 mg/kg based on abiraterone), and abiraterone acetate was administered orally at a dose of 42.3 mg/kg (37.8 mg/kg based on abiraterone). Blank blood was collected in an EDTA-K2 anticoagulation tube before administration, and at 0.25 h, 0.5 h, 1.0 h, 2.0 h, 4.0 h, 6.0 h, 8.0 h, and 24.0 h after administration, 1 mL of blood was collected in EDTA-K2 anticoagulation tubes. After blood was fully mixed with an anticoagulant, each of the anticoagulation tubes was immediately placed in ice and centrifuged as soon as possible to isolate plasma, and the isolated plasma was stored in labeled EP tubes. 50 μL of a plasma sample was taken, 300 μL of a 10 ng/mL carbamazepine-containing acetonitrile solution was added for protein precipitation, and a resulting mixture was vortexed for 5 min and then centrifuged in a centrifuge at 5,500 g for 10 min; and 100 μL of a resulting supernatant was taken, 300 μL of 50%-methanol water was added for dilution, a resulting dilution was vortexed, and 5 μL of a vortexed dilution was injected. In vivo drug concentrations of LHY-AB614, abiraterone acetate, and abiraterone were determined by HPLC-MS/MS.

[4] = Beagle, dog, in vivo, po, 46.8 mg/kg

CC(=O)O[C@H]1CC[C@@]2(C)C(=CC[C@@H]3[C@@H]2CC[C@]2(C)C(c4cccnc4)=CC[C@@H]32)C1 [Abiraterone acetate, abiraterone acetate]
pIC50 (LNCAP clone FGC; Homo sapiens, LNCaP-Clone-FGC): 4.81
Max inhibition (LNCAP clone FGC): 78.30%
pIC50 (VCAP; Homo sapiens): < 4.30
Max inhibition (VCAP): 29.43%
death risk reduced ([1]; combination with prednisone versus placebo and prednisone): 35%
median survival time prolonged versus placebo and prednisone ([1]; combination with prednisone, p<0.0001): 3.9 months
median survival time ([1]; patient treated with a combination of abiraterone acetate and prednisone): 14.8 months
solubility [2]: < 100 µg/mL
species detected in vivo after administration ([3]; oral, Beagle dogs, plasma, HPLC-MS/MS): Only abiraterone is detected in vivo

N.N.[Cl][Pt][Cl] [Cisplatin]
Max inhibition (LNCAP clone FGC): 97.49%
pIC50 (LNCAP clone FGC): 4.89
Max inhibition (VCAP): 85.02%
pIC50 (VCAP): 4.39

CN(C)CCOCCOC(=O)O[C@H]1CC[C@@]2(C)C(=CC[C@@H]3[C@@H]2CC[C@]2(C)C(c4cccnc4)=CC[C@@H]32)C1 [Compound represented by formula I]
pIC50 (LNCAP clone FGC; Homo sapiens, LNCaP-Clone-FGC): 5.49
Max inhibition (LNCAP clone FGC): 99.49%
pIC50 (VCAP; Homo sapiens): 5.24
Max inhibition (VCAP): 99.31%

CN(C)CCOCCOC(=O)O[C@H]1CC[C@@]2(C)C(=CC[C@@H]3[C@@H]2CC[C@]2(C)C(c4cccnc4)=CC[C@@H]32)C1 [LHY-AB614]
pIC50 (LNCAP clone FGC; Homo sapiens, LNCaP-Clone-FGC): 5.49
pIC50 (VCAP; Homo sapiens): 5.24
species detected in vivo after administration ([3]; Beagle, dog, in vivo, po): LHY-AB614 and abiraterone both can be detected in vivo
AUC0-inf [3, 4]: 6186 ng·h/mL
AUC0-t [3, 4]: 6116 ng·h/mL
AUC(0-inf) [3, 4]: 1060 ng·h/mL
AUC(0-t) [3, 4]: 908 ng·h/mL
Cls, app [3, 4]: 757
T1/2 [3, 4]: 3.7 h
Tmax [3, 4]: 1.5 h
half-life [3, 4]: 6.8 h
AUC compared with the administration of abiraterone acetate ([3]; dog, in vivo, po): significantly increases
Cmax of abiraterone compared with Cmax of LHY-AB614 ([3]; dog, in vivo, po): much higher
Cmax of abiraterone compared with the administration of abiraterone acetate ([3]; dog, in vivo, po): significantly increases
Tmax compared with the administration of abiraterone acetate ([3]; dog, in vivo, po): does not change
